From publication PMC5342726, “Identification of small molecule inhibitors of ERCC1-XPF that inhibit DNA repair and potentiate cisplatin efficacy in cancer cells” (Oncotarget, 2016)

Key:
HhaI [1] = assay: Gel-based nuclease assay, HhaI; format: biochemical; conditions: compound titration
HhaI [2] = assay: Secondary screen, fluorescence assay with HhaI endonuclease; format: biochemical; conditions: compound titration in the HTS assay
H460 cells [3] = assay: Cisplatin interstrand crosslink repair by comet assay; format: cell-based; conditions: compound 15 μM 2 h then cisplatin at IC90; 0-72 h
Procedure: (B) After treatment, comet assay was performed as described at different time intervals (0, 24, 48 and 72 h). The percentage of interstrand crosslinks remaining was calculated using olive tail moment. Results are represented as mean ± SEM of three independent experiments.
The data is expressed as the percentage of crosslinks remaining at the time points assessed.
Cells were treated with compound (Hit control (9:1 DMSO-glycerol). After incubation at 37°C 1 or Hit 2) and cisplatin or just cisplatin alone in serum for 30 minutes, 2 μL of the pre-incubate was diluted into a free media. […] Cells were further treated with 100 μM
Cells were then trypsinized, pelleted and resuspended in 1% low melting point agarose.

H460 cells [4] = assay: Colony survival assay in H460 cells; format: cell-based; conditions: for IC50: Homo sapiens, NCI-H460, Fig 4C, compound 4 h, cisplatin fixed at IC50 added after 2 h, read-out: compound titration with cisplatin at the IC50, colony survival; for fold change in cisplatin IC50 in combination: combination with cisplatin; for effect of compound alone on colony survival: compound titrated alone, 4 h
Procedure: (§1) We used H460, NSCLC cells, to first assess the impact on colony survival by knocking down ERCC1-XPF in these cells. […] Next, to assess if colony survival is affected we titrated cisplatin in these cells using a fixed concentration of Hit 1(50 μM) or Hit 2 (25 and 50 μM). […] Next, we assessed cisplatin potentiation by treating cells at a fixed cisplatin concentration (cisplatin IC50 in H460 cells) with Hit 1 or 2 titration (Figure 4C, filled symbols). H460 cells were treated with compound for a total of 4 hours while cisplatin was added to the media after 2 hours of compound pre-treatment. […] We also titrated Hit 1 or Hit 2 alone in these cells and treated for 4 h. […] We also assessed the effects of Hit 2 in another NSCLC cell line (H1299), which was either ERCC1 wildtype (WT) or knockout (KO) (Figure 4E).
Colony survival assay in a total reaction volume of 2.4 mL in a six-well plate Cells were split and seeded at a density of 300-400 format. Cells were transfected for 48 hours after which cells in a 60 mm plate and incubated overnight. The next complete media was added for 24 hours. Cells were day, the cells were treated with a fixed concentration of the seeded for clones and clones were selected using standard compound (Hit 1 or Hit 2) with cisplatin titration. After methods. ERCC1 KO clones were tested for ERCC1 treatment, fresh complete medium with antibiotics was and XPF expression by Western Blot using the ERCC1 added and the cells were then allowed to form colonies. In antibodies, 8F1, FL-297, and D-10 and the XPF antibody another method, the cells were seeded onto 60mm plates 3F2/3 (Santa Cruz).
Validation of genome editing was performed alone or titrated with a fixed concentration of cisplatin by PCR amplification with Taq polymerase (NEB) of (IC50 for the cell line used). Post treatment, the cells were exon 2 within the genomic DNA using the forward allowed to form colonies. Colonies were fixed with 95% primer: 5’ […]
methanol and stained with 0.2 % crystal violet. Colonies 3’ and the reverse primer: 5’ […]
with ≥50 cells were counted using a light microscope. Cell […] 3’. PCR product was cloned […]
survival was expressed as the ratio of average number of into a linearized pCR4-TOPO vector and transformed colonies in drug treated cells versus control cells x 100. into OneShot TOP10 E. coli using the TOPO-TA Cloning The experiment was done in triplicate for each drug Kit for Sequencing (Thermofisher). Bacterial colonies concentration. We have previously published the methods were selected with ampicillin and plasmid was extracted for ERCC1 and XPF knockdowns, which were used as using standard procedures. Plasmid was sequenced by controls. Briefly, cells were seeded onto six-well plates GeneWiz using an M13R primer. Potential sites of off-target editing in coding sequences were identified during
(density 2.5 × 10^5 cells /well) in antibiotic free media. guide RNA design with the Optimized CRISPR Design Two transfections were done at 24 h interval in each cell Tool. Primers were designed to amplify the exons line to knockdown ERCC1-XPF together according to containing the potential off-target sites and PCR product the manufacturer ’s (Dharmacon’s smartpools) protocol. was sequenced by GeneWiz. A list of specific off-target Addition of lipid reagent (Dharmafect 2, Dharmacon) sites and primers used to assess these off-target effects are […]

H1299 ERCC1 KO cells = assay: Colony survival assay in H1299 ERCC1 KO cells; format: cell-based
Procedure: as §1
(§2) Colony survival assay in a total reaction volume of 2.4 mL in a six-well plate Cells were split and seeded at a density of 300-400 format. […]
(§3) with ≥50 cells were counted using a light microscope. […]
(§4) survival was expressed as the ratio of average number of into a linearized pCR4-TOPO vector and transformed colonies in drug treated cells versus control cells x 100. into OneShot TOP10 E. coli using the TOPO-TA Cloning The experiment was done in triplicate for each drug Kit for Sequencing (Thermofisher). […]

XPG = target: T1, XPG (Homo sapiens, UniProt P28715); assay: Secondary screen, fluorescence assay with XPG endonuclease; format: biochemical; conditions: compound titration in the HTS assay
T1 sequence (P28715 1-1186): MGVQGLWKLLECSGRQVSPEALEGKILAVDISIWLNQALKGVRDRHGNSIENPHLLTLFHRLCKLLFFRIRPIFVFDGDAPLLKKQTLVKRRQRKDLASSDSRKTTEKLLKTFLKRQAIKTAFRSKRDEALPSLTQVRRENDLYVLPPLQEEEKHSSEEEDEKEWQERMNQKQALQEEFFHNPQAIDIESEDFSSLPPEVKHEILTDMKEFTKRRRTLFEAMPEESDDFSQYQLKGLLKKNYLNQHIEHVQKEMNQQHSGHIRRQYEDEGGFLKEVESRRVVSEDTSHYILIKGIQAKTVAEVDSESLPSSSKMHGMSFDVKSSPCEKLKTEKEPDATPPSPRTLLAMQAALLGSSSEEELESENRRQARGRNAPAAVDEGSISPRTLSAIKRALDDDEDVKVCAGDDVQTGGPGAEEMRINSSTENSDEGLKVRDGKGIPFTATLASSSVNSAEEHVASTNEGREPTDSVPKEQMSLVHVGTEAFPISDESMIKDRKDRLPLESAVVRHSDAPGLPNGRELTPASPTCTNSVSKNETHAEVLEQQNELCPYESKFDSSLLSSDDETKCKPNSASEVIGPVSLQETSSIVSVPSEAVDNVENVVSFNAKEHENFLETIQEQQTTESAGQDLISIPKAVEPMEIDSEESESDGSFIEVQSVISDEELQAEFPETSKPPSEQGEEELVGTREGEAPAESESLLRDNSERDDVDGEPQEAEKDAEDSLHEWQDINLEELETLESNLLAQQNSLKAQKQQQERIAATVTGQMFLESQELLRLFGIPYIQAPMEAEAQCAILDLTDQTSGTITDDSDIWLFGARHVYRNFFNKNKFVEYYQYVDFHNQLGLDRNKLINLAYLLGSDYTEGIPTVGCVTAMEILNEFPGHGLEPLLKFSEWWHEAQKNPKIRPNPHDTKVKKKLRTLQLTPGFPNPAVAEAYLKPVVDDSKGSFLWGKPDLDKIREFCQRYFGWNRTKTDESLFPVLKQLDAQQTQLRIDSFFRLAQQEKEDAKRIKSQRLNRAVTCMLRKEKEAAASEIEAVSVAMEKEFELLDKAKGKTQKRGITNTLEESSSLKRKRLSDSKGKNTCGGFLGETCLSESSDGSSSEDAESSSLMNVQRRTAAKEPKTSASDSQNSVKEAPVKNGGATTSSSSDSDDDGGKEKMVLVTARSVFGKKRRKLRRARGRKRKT

H1299 ERCC1 WT cells = assay: Colony survival assay in H1299 ERCC1 WT cells; format: cell-based
Procedure: as §1, §2, §3, §4

APE1 endonuclease = system: APE1 endonuclease; parameters: method as in PMID 18042731; conditions: cited from earlier work

With `Cc1ccc(S(=O)(=O)Oc2cc(S(=O)(=O)O)cc3cc(S(=O)(=O)O)cc(N)c23)cc1` [NSC16168] the “inhibition of HhaI nuclease activity, gel-based assay” value (HhaI [1]) was “does not inhibit the nuclease activity”, the “effect on HhaI activity” value (HhaI [2]) was “no effect” and the “effect on ICL repair” value (H460 cells [3]) was “does not have any effect on ICL repair”. For the same compound, the IC50 (H460 cells [4]) was 4 µM, the “fold change in cisplatin IC50 in combination” value (H460 cells [4]) was ~ 3 fold and the “effect of compound alone on colony survival” value (H460 cells [4]) was “no effect on colony survival”. For the same compound, the “potentiation of cisplatin response, ERCC1 KO” value (H1299 ERCC1 KO cells) was “no additional cisplatin potentiation”, the “effect on XPG activity” value (XPG) was “no effect” and the “potentiation of cisplatin response, ERCC1 WT” value (H1299 ERCC1 WT cells) was “potentiated the cisplatin response”. The IC50 (APE1 endonuclease) was about 7 µM.
For `Oc1cc(O)c2c(c1)OC(c1ccc(O)c(O)c1)C(O)C2c1c(O)cc(O)c2c1OC(c1ccc(O)c(O)c1)C(O)C2` (centres unmarked) [NSC143099], the “inhibition of HhaI nuclease activity, gel-based assay” value (HhaI [1]) was “does not inhibit the nuclease activity”, the “effect on HhaI activity” value (HhaI [2]) was “no effect on HhaI activity” and the “effect on ICL repair” value (H460 cells [3]) was “ICL repair was significantly reduced”. The IC50 (H460 cells [4]) was 15 µM, the “fold change in cisplatin IC50 in combination” value (H460 cells [4]) was ~ 3 fold and the “effect of compound alone on colony survival” value (H460 cells [4]) was “no effect on colony survival”. For the same compound, the “effect on XPG activity” value (XPG) was “some effect on XPG activity at higher concentrations”.
